Values of other authors in patent publication US11377445B2, “Derivatives of paliperidone and process for the preparation thereof” (Zenvision Pharma LLP, priority 2018, dated 2022).

Row | solubility in 0.1N HCl (0.1N HCl) | solubility in 0.1N NaOH (0.1N NaOH) | solubility in N, N-dimethylformamide (N, N-dimethylformamide) | solubility in hexane (hexane) | solubility in methylene chloride (methylene chloride) | solubility in water (water) | solubility in ethanol (ethanol) | solubility in ethyl acetate (ethyl acetate) | solubility in methanol (methanol) | solubility in polyethylene glycol 400 (polyethylene glycol 400) | solubility in propylene glycol (propylene glycol) | Compound
1 | sparingly soluble | practically insoluble | slightly soluble | practically insoluble | sparingly soluble | practically insoluble |  |  |  |  |  | Cc1nc2n(c(=O)c1CCN1CCC(c3noc4cc(F)ccc34)CC1)CCCC2O (racemic) [Paliperidone, (±)-3-[2-[4-(6-fluoro-1,2-benzisoxazol-3-yl)-1-piperidinyl]ethyl]-6,7,8,9-tetrahydro-9-hydroxy-2-methyl-4Hpyrido[1,2-a]pyrimidin-4-one]
2 |  |  |  |  |  |  | very slightly soluble | slightly soluble | very slightly soluble | practically insoluble | practically insoluble | CCCCCCCCCCCCCCCC(=O)OC1CCCn2c1nc(C)c(CCN1CCC(c3noc4cc(F)ccc34)CC1)c2=O (centres unmarked) [Paliperidone palmitate]
